Data from patent US20070049564A1 (Wyeth, priority 2005, published 2007).
Converted amounts (≈) assume the structure as drawn. Where two headings read alike, the source gives them in different places.

Key:
E. coli GC 2231 = assay: MIC, broth microdilution; conditions: Escherichia coli
E. coli GC 4559 = assay: MIC, broth microdilution; conditions: Escherichia coli
E. coli GC 2203 = assay: MIC, broth microdilution; conditions: Escherichia coli
E. faecalis GC 2267 = assay: MIC, broth microdilution; conditions: Enterococcus faecalis
P. aeruginosa GC 2214 = assay: MIC, broth microdilution; conditions: Pseudomonas aeruginosa
E. coli GC 2232 = assay: MIC, broth microdilution; conditions: Escherichia coli
E. coli GC 3226 = assay: MIC, broth microdilution; conditions: Escherichia coli
S. aureus GC 6335 = assay: MIC, broth microdilution; conditions: Staphylococcus aureus
S. aureus GC 2216 = assay: MIC, broth microdilution; conditions: Staphylococcus aureus
S. aureus GC 6467 = assay: MIC, broth microdilution; conditions: Staphylococcus aureus
E. coli GC 2235 = assay: MIC, broth microdilution; conditions: Escherichia coli
E. coli GC 2270 = assay: MIC, broth microdilution; conditions: Escherichia coli
S. pneumoniae* GC 4465 = assay: MIC, broth microdilution; conditions: Streptococcus pneumoniae
E. coli GC 4560 = assay: MIC, broth microdilution; conditions: Escherichia coli
E. faecalis GC 2242 = assay: MIC, broth microdilution; conditions: Enterococcus faecalis
E. faecium GC 4556 = assay: MIC, broth microdilution; conditions: Enterococcus faecium
Staph. aureus Smith = assay: In vivo activity (oral, iv; ED50) against Staph. aureus Smith in mice
E. coli GC 2271 = assay: MIC, broth microdilution; conditions: Escherichia coli
S. agalactiae GC 4564 = assay: MIC, broth microdilution; conditions: Streptococcus agalactiae
S. typhimurium GC 2172 = assay: MIC, broth microdilution; conditions: Salmonella enterica, TYPHIMURIUM
[1] = read-out: MINIMAL INHIBITORY CONCENTRATION MIC, pre-incubated in Mouse Serum
[2] = read-out: MINIMAL INHIBITORY CONCENTRATION MIC, pre-incubated in Water

MIC (E. coli GC 2231; GC2231, read-out: MINIMAL INHIBITORY CONCENTRATION MIC, pre-incubated in Mouse Serum): 4 µg/mL (≈ 5.14 µM)
MIC (E. coli GC 2231; GC2231, read-out: MINIMAL INHIBITORY CONCENTRATION MIC, pre-incubated in Water): > 64 µg/mL
MIC (E. coli GC 4559; GC4559, read-out: MINIMAL INHIBITORY CONCENTRATION MIC, pre-incubated in Mouse Serum): 2 µg/mL (≈ 2.57 µM)
MIC (E. coli GC 4559; GC4559, read-out: MINIMAL INHIBITORY CONCENTRATION MIC, pre-incubated in Water): > 64 µg/mL
MIC (E. coli GC 2203; GC2203, read-out: MINIMAL INHIBITORY CONCENTRATION MIC, pre-incubated in Mouse Serum): 1 µg/mL (≈ 1.29 µM)
MIC (E. coli GC 2203; GC2203, read-out: MINIMAL INHIBITORY CONCENTRATION MIC, pre-incubated in Water): > 64 µg/mL
MIC (E. faecalis GC 2267; GC2267, read-out: MINIMAL INHIBITORY CONCENTRATION MIC, pre-incubated in Mouse Serum): 2 µg/mL (≈ 2.57 µM)
MIC (E. faecalis GC 2267; GC2267, read-out: MINIMAL INHIBITORY CONCENTRATION MIC, pre-incubated in Water): 4 µg/mL (≈ 5.14 µM)
MIC (P. aeruginosa GC 2214; GC2214, read-out: MINIMAL INHIBITORY CONCENTRATION MIC, pre-incubated in Mouse Serum): 32 µg/mL (≈ 41.1 µM)
MIC (P. aeruginosa GC 2214; GC2214, read-out: MINIMAL INHIBITORY CONCENTRATION MIC, pre-incubated in Water): > 64 µg/mL
MIC (E. coli GC 2232; GC2232, read-out: MINIMAL INHIBITORY CONCENTRATION MIC, pre-incubated in Mouse Serum): 1 µg/mL (≈ 1.29 µM)
MIC (E. coli GC 2232; GC2232, read-out: MINIMAL INHIBITORY CONCENTRATION MIC, pre-incubated in Water): > 64 µg/mL
MIC (E. coli GC 3226; GC3226, read-out: MINIMAL INHIBITORY CONCENTRATION MIC, pre-incubated in Mouse Serum): 2 µg/mL (≈ 2.57 µM)
MIC (E. coli GC 3226; GC3226, read-out: MINIMAL INHIBITORY CONCENTRATION MIC, pre-incubated in Water): > 64 µg/mL
MIC (S. aureus GC 6335; GC6335, read-out: MINIMAL INHIBITORY CONCENTRATION MIC, pre-incubated in Mouse Serum): 0.5 µg/mL (≈ 0.643 µM)
MIC (S. aureus GC 6335; GC6335, read-out: MINIMAL INHIBITORY CONCENTRATION MIC, pre-incubated in Water): 1 µg/mL (≈ 1.29 µM)
MIC (S. aureus GC 2216; GC2216, read-out: MINIMAL INHIBITORY CONCENTRATION MIC, pre-incubated in Mouse Serum): 0.5 µg/mL (≈ 0.643 µM)
MIC (S. aureus GC 2216; GC2216, read-out: MINIMAL INHIBITORY CONCENTRATION MIC, pre-incubated in Water): 0.5 µg/mL (≈ 0.643 µM)
MIC (S. aureus GC 6467; GC6467, read-out: MINIMAL INHIBITORY CONCENTRATION MIC, pre-incubated in Mouse Serum): 1 µg/mL (≈ 1.29 µM)
MIC (S. aureus GC 6467; GC6467, read-out: MINIMAL INHIBITORY CONCENTRATION MIC, pre-incubated in Water): 4 µg/mL (≈ 5.14 µM)
MIC (E. coli GC 2235; GC2235, read-out: MINIMAL INHIBITORY CONCENTRATION MIC, pre-incubated in Mouse Serum): 1 µg/mL (≈ 1.29 µM)
MIC (E. coli GC 2235; GC2235, read-out: MINIMAL INHIBITORY CONCENTRATION MIC, pre-incubated in Water): 64 µg/mL (≈ 82.3 µM)
MIC (E. coli GC 2270; GC2270, read-out: MINIMAL INHIBITORY CONCENTRATION MIC, pre-incubated in Mouse Serum): 1 µg/mL (≈ 1.29 µM)
MIC (E. coli GC 2270; GC2270, read-out: MINIMAL INHIBITORY CONCENTRATION MIC, pre-incubated in Water): > 64 µg/mL
MIC (S. pneumoniae* GC 4465; [1]): 0.25 µg/mL (≈ 0.321 µM)
MIC (S. pneumoniae* GC 4465; [2]): 0.25 µg/mL (≈ 0.321 µM)
MIC (E. coli GC 4560; GC4560, read-out: MINIMAL INHIBITORY CONCENTRATION MIC, pre-incubated in Mouse Serum): 0.5 µg/mL (≈ 0.643 µM)
MIC (E. coli GC 4560; GC4560, read-out: MINIMAL INHIBITORY CONCENTRATION MIC, pre-incubated in Water): 8 µg/mL (≈ 10.3 µM)
MIC (E. faecalis GC 2242; GC2242, read-out: MINIMAL INHIBITORY CONCENTRATION MIC, pre-incubated in Mouse Serum): 2 µg/mL (≈ 2.57 µM)
MIC (E. faecalis GC 2242; GC2242, read-out: MINIMAL INHIBITORY CONCENTRATION MIC, pre-incubated in Water): 4 µg/mL (≈ 5.14 µM)
MIC (E. faecium GC 4556; GC4556, read-out: MINIMAL INHIBITORY CONCENTRATION MIC, pre-incubated in Mouse Serum): 1 µg/mL (≈ 1.29 µM)
MIC (E. faecium GC 4556; GC4556, read-out: MINIMAL INHIBITORY CONCENTRATION MIC, pre-incubated in Water): 4 µg/mL (≈ 5.14 µM)
MIC (E. coli GC 2271; GC2271, read-out: MINIMAL INHIBITORY CONCENTRATION MIC, pre-incubated in Mouse Serum): 1 µg/mL (≈ 1.29 µM)
MIC (E. coli GC 2271; GC2271, read-out: MINIMAL INHIBITORY CONCENTRATION MIC, pre-incubated in Water): > 64 µg/mL
MIC (S. agalactiae GC 4564; GC4564, read-out: MINIMAL INHIBITORY CONCENTRATION MIC, pre-incubated in Mouse Serum): 1 µg/mL (≈ 1.29 µM)
MIC (S. agalactiae GC 4564; GC4564, read-out: MINIMAL INHIBITORY CONCENTRATION MIC, pre-incubated in Water): 2 µg/mL (≈ 2.57 µM)
MIC (S. typhimurium GC 2172; [1]): 16 µg/mL (≈ 20.6 µM)
MIC (S. typhimurium GC 2172; [2]): > 64 µg/mL
SMILES: CCCN(CC(=O)Nc1cc(N(C)C)c2c(c1O)C(=O)C1=C(O)[C@]3(O)C(=O)C(C(N)=O)=C(O)[C@@H](N(C)C)[C@@H]3C[C@@H]1C2)C(=O)OCOC(=O)c1cc(C)cc(C)c1 [Example 26, ({[(2-{[(5aR,6aS,7S,10aS)-9-(aminocarbonyl)-4,7-bis(dimethylamino)-1,8,10a,11-tetrahydroxy-10,12-dioxo-5,5a,6,6a,7,10,10a,12-octahydrotetracen-2-yl]amino}-2-oxoethyl)(propyl)amino]carbonyl}oxy)methyl 3,5-dimethylbenzoate]
ED50 (Staph. aureus Smith; Staphylococcus aureus, in Mus musculus, iv, read-out: ED50 SIV (Staph aureus Smith)): 0.43 mg/kg
ED50 (Staph. aureus Smith; Staphylococcus aureus, in Mus musculus, po, read-out: ED50 SOD (Staph aureus Smith)): 8.79 mg/kg
ED50 (Staph. aureus Smith; Staphylococcus aureus, in Mus musculus, po, read-out: ED50 Staph Smith SOD): 8.79 mg/kg
ED50 (Staph. aureus Smith; iv, read-out: ED50 Staph Smith SIV): 0.43 mg/kg
